Laboratory results taken from PubChem BioAssay AID248 (DTP/NCI, 2004).
“And” between values parts separate entries of the source, which are not always exact repeats. Equal entries are not always repeated. Inconclusive results and toxic doses are left out.

Test system: L1210 leukemia ip in BDF1 mice, survival T/C
Assay: NCI In Vivo Anticancer Drug Screen. Data for tumor model L1210 Leukemia (intraperitoneal) in B6D2F1 (BDF1) mice
Conditions: endpoint: mean survival time, higher = longer survival
Summary of the method: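 Transplanted-tumor mice were given test agent; controls received vehicle only. Survival readings from the two groups were divided (treated over control).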

[1] = dose: 100.0 mg/kg/injection, schedule: Q04DX002 (ip), vehicle: saline with Tween-80
[2] = dose: 200.0 mg/kg/injection, schedule: Q04DX002 (ip), vehicle: saline with Tween-80
[3] = dose: 400.0 mg/kg/injection, schedule: Q04DX002 (ip), vehicle: saline with Tween-80
[4] = dose: 50.0 mg/kg/injection, schedule: Q01DX009 (ip), vehicle: saline with Tween-80
[5] = dose: 100.0 mg/kg/injection, schedule: Q01DX009 (ip), vehicle: saline with Tween-80
[6] = dose: 200.0 mg/kg/injection, schedule: Q01DX009 (ip), vehicle: saline with Tween-80
[7] = dose: 100.0 mg/kg/injection, schedule: Q04DX003 (ip), vehicle: saline with Tween-80
[8] = dose: 200.0 mg/kg/injection, schedule: Q04DX003 (ip), vehicle: saline with Tween-80
[9] = dose: 400.0 mg/kg/injection, schedule: Q01DX009 (ip), vehicle: saline with Tween-80
[10] = dose: 400.0 mg/kg/injection, schedule: Q04DX003 (ip), vehicle: saline with Tween-80
[11] = dose: 25.0 mg/kg/injection, schedule: Q04DX002 (ip), vehicle: saline with Tween-80
[12] = dose: 50.0 mg/kg/injection, schedule: Q01DX001 (ip), vehicle: carboxymethylcellulose (CMC)
[13] = dose: 100.0 mg/kg/injection, schedule: Q01DX001 (ip), vehicle: carboxymethylcellulose (CMC)
[14] = dose: 200.0 mg/kg/injection, schedule: Q01DX001 (ip), vehicle: carboxymethylcellulose (CMC)
[15] = dose: 400.0 mg/kg/injection, schedule: Q01DX001 (ip), vehicle: carboxymethylcellulose (CMC)
[16] = dose: 200.0 mg/kg/injection, schedule: Q04DX003 (ip), vehicle: saline
[17] = dose: 100.0 mg/kg/injection, schedule: Q04DX002 (ip), vehicle: Klucel (hydroxypropylcellulose) (HPC)
[18] = dose: 200.0 mg/kg/injection, schedule: Q04DX002 (ip), vehicle: Klucel (hydroxypropylcellulose) (HPC)
[19] = dose: 400.0 mg/kg/injection, schedule: Q04DX002 (ip), vehicle: Klucel (hydroxypropylcellulose) (HPC)

SMILES: COC(=O)CC(C(=O)OC)N1CC1 (stereo unspecified)
- T/C (dose: 75.0 mg/kg/injection, schedule: Q01DX001 (ip), vehicle: carboxymethylcellulose (CMC)): 101 % of control

SMILES: C/C(=C\COc1ccccc1)CCC1OC1(C)C (stereo unspecified)
- T/C [1]: 100 % of control
- T/C [2]: 93 % of control
- T/C [3]: 104 % of control

SMILES: CC(OC(=O)CF)C(C)OC(=O)CF (stereo unspecified)
- T/C (dose: 0.5 mg/kg/injection, schedule: Q01DX001 (ip), vehicle: carboxymethylcellulose (CMC)): 110 % of control
- T/C (dose: 1.0 mg/kg/injection, schedule: Q01DX001 (ip), vehicle: carboxymethylcellulose (CMC)): 94 % of control
- T/C (dose: 2.0 mg/kg/injection, schedule: Q01DX001 (ip), vehicle: carboxymethylcellulose (CMC)): 108 % of control
- T/C (dose: 4.0 mg/kg/injection, schedule: Q01DX001 (ip), vehicle: carboxymethylcellulose (CMC)): 100 % of control
- T/C (dose: 8.0 mg/kg/injection, schedule: Q01DX001 (ip), vehicle: carboxymethylcellulose (CMC)): 108 % of control

SMILES: CCC(=O)c1cc([N+](=O)[O-])ccc1N
- T/C [4]: 100 % of control
- T/C [5]: 100 % of control
- T/C [6]: 100 % of control

SMILES: O=P(CCl)(CCl)CCl
- T/C (dose: 25.0 mg/kg/injection, schedule: Q01DX009 (ip), vehicle: saline with Tween-80): 100 % of control
- T/C [4]: 92 % of control
- T/C [5]: 88 % of control and 92 % of control

SMILES: CCOC(=O)CCN(CC(=O)OCC)C(C)C
- T/C [5]: 100 % of control
- T/C [7]: 100 % of control
- T/C [6]: 106 % of control
- T/C [8]: 95 % of control
- T/C [9]: 110 % of control
- T/C [10]: 103 % of control

SMILES: C=CS(=O)CCCCCCC (stereo unspecified)
- T/C (dose: 12.5 mg/kg/injection, schedule: Q04DX002 (ip), vehicle: saline with Tween-80): 106 % of control
- T/C [11]: 103 % of control
- T/C (dose: 50.0 mg/kg/injection, schedule: Q04DX002 (ip), vehicle: saline with Tween-80): 109 % of control

SMILES: CC(=O)CCSC(C)C
- T/C [4]: 89 % of control
- T/C [5]: 92 % of control
- T/C [6]: 92 % of control

SMILES: CCCCC(OC(=O)c1ccc([N+](=O)[O-])cc1)C(C)[N+](=O)[O-] (stereo unspecified)
- T/C [5]: 94 % of control
- T/C [6]: 97 % of control
- T/C [9]: 92 % of control

SMILES: COc1cccc(NC(=O)NC(C)(C)C)c1
- T/C [4]: 95 % of control and 119 % of control
- T/C (dose: 100.0 mg/kg/injection, schedule: Q01DX001 (ip), vehicle: saline with Tween-80): 106 % of control
- T/C [1]: 97 % of control and 103 % of control
- T/C [7]: 105 % of control
- T/C (dose: 200.0 mg/kg/injection, schedule: Q01DX001 (ip), vehicle: saline with Tween-80): 100 % of control
- T/C [2]: 94 % of control and 100 % of control
- T/C [8]: 104 % of control
- T/C (dose: 400.0 mg/kg/injection, schedule: Q01DX001 (ip), vehicle: saline with Tween-80): 111 % of control
- T/C [9]: 103 % of control and 108 % of control
- T/C [3]: 97 % of control and 86 % of control
- T/C [10]: 96 % of control

SMILES: Cc1ccc(C2(O)CC3CCC2(c2ccc(C)cc2)C3)cc1 (stereo unspecified)
- T/C [12]: 95 % of control
- T/C [13]: 101 % of control
- T/C [14]: 98 % of control
- T/C [15]: 98 % of control

SMILES: COc1cc2c(c(OC)c1O)-c1ccc(OC)c(=O)cc1[C@@H](NC(C)=O)CC2
- T/C (dose: 25.0 mg/kg/injection, schedule: Q01DX009 (ip), vehicle: saline): 159 % of control
- T/C (dose: 50.0 mg/kg/injection, schedule: Q01DX009 (ip), vehicle: saline): 106 % of control and 108 % of control
- T/C (dose: 50.0 mg/kg/injection, schedule: Q04DX002 (ip), vehicle: saline): 111 % of control
- T/C (dose: 200.0 mg/kg/injection, schedule: Q04DX002 (ip), vehicle: saline): 122 % of control
- T/C [16]: 95 % of control

SMILES: CC(=O)CC(=O)Nc1cc(C)ccc1C
- T/C (dose: 100.0 mg/kg/injection, schedule: Q04DX003 (ip), vehicle: saline): 101 % of control
- T/C [16]: 118 % of control
- T/C (dose: 400.0 mg/kg/injection, schedule: Q04DX003 (ip), vehicle: saline): 95 % of control

SMILES: COc1ccc(CN2CCCN(Cc3ccc(OC)cc3OC)C2c2cccc(F)c2)c(OC)c1
- T/C (dose: 50.0 mg/kg/injection, schedule: Q01DX001 (ip), vehicle: saline): 89 % of control
- T/C (dose: 100.0 mg/kg/injection, schedule: Q01DX001 (ip), vehicle: saline): 89 % of control
- T/C (dose: 200.0 mg/kg/injection, schedule: Q01DX001 (ip), vehicle: saline): 100 % of control
- T/C (dose: 400.0 mg/kg/injection, schedule: Q01DX001 (ip), vehicle: saline): 91 % of control

SMILES: CCc1cc2c(cc1C(=O)/C=C\c1cccc3ccccc13)C(C)(C)CCC2(C)C
- T/C [11]: 89 % of control
- T/C [1]: 89 % of control

SMILES: CCCCCCCCCCCCN=C(N)N/C(N)=N/S(=O)(=O)c1ccc(OCCC)cc1
- T/C [17]: 106 % of control
- T/C [18]: 100 % of control
- T/C [19]: 95 % of control

SMILES: Oc1c(Cl)cc(Cl)cc1/C=N\Nc1ccccn1
- T/C (dose: 100.0 mg/kg/injection, schedule: Q01DX001 (ip), vehicle: Klucel (hydroxypropylcellulose) (HPC)): 92 % of control
- T/C (dose: 200.0 mg/kg/injection, schedule: Q01DX001 (ip), vehicle: Klucel (hydroxypropylcellulose) (HPC)): 95 % of control
- T/C (dose: 400.0 mg/kg/injection, schedule: Q01DX001 (ip), vehicle: Klucel (hydroxypropylcellulose) (HPC)): 95 % of control

SMILES: C[n+]1c(-c2ccccc2)c2cc(N)ccc2c2ccccc21
- T/C (dose: 0.2 mg/kg/injection, schedule: Q01DX Z (ip), vehicle: methylcellulose (MC)): 108 % of control
- T/C (dose: 0.3 mg/kg/injection, schedule: Q01DX Z (ip), vehicle: methylcellulose (MC)): 113 % of control
- T/C (dose: 0.5 mg/kg/injection, schedule: Q01DX Z (ip), vehicle: methylcellulose (MC)): 102 % of control and 114 % of control
- T/C (dose: 0.75 mg/kg/injection, schedule: Q01DX Z (ip), vehicle: methylcellulose (MC)): 111 % of control
- T/C (dose: 1.0 mg/kg/injection, schedule: Q01DX Z (ip), vehicle: methylcellulose (MC)): 107 % of control and 120 % of control
- T/C (dose: 1.5 mg/kg/injection, schedule: Q01DX Z (ip), vehicle: methylcellulose (MC)): 104 % of control
- T/C (dose: 1.5 mg/kg/injection, schedule: Q01DX Z (ip), vehicle: saline): 111 % of control
- T/C (dose: 2.0 mg/kg/injection, schedule: Q01DX Z (ip), vehicle: carboxymethylcellulose (CMC)): 106 % of control
- T/C (dose: 2.0 mg/kg/injection, schedule: Q01DX Z (ip), vehicle: methylcellulose (MC)): 110 % of control and 113 % of control
- T/C (dose: 3.0 mg/kg/injection, schedule: Q01DX Z (ip), vehicle: carboxymethylcellulose (CMC)): 112 % of control
- T/C (dose: 3.0 mg/kg/injection, schedule: Q01DX Z (ip), vehicle: methylcellulose (MC)): 117 % of control
- T/C (dose: 3.0 mg/kg/injection, schedule: Q01DX Z (ip), vehicle: saline): 117 % of control
- T/C (dose: 4.0 mg/kg/injection, schedule: Q01DX Z (ip), vehicle: methylcellulose (MC)): 121 % of control
- T/C (dose: 4.4 mg/kg/injection, schedule: Q01DX Z (ip), vehicle: carboxymethylcellulose (CMC)): 110 % of control
- T/C (dose: 6.6 mg/kg/injection, schedule: Q01DX Z (ip), vehicle: carboxymethylcellulose (CMC)): 120 % of control
- T/C (dose: 8.0 mg/kg/injection, schedule: Q01DX Z (ip), vehicle: methylcellulose (MC)): 121 % of control and 122 % of control
- T/C (dose: 10.0 mg/kg/injection, schedule: Q01DX001 (ip), vehicle: saline): 100 % of control
- T/C (dose: 20.0 mg/kg/injection, schedule: Q01DX001 (ip), vehicle: saline): 117 % of control
- T/C (dose: 24.0 mg/kg/injection, schedule: Q01DX Z (ip), vehicle: saline): 112 % of control
- T/C (dose: 40.0 mg/kg/injection, schedule: Q01DX001 (ip), vehicle: saline): 100 % of control

SMILES: CCOC(=O)C(C)(C)CCC(C)(C)C(=O)OCC
- T/C [17]: 97 % of control
- T/C [18]: 103 % of control
- T/C [19]: 90 % of control

SMILES: CCN1c2ccccc2S(=O)c2cc([N+](=O)[O-])ccc21 (stereo unspecified)
- T/C [12]: 93 % of control
- T/C [13]: 87 % of control
- T/C [14]: 96 % of control
- T/C [15]: 98 % of control

SMILES: O=C(O)/C=C/c1cc(O)c(O)c(O)c1
- T/C (dose: 25.0 mg/kg/injection, schedule: Q01DX001 (ip), vehicle: other): 100 % of control
- T/C (dose: 50.0 mg/kg/injection, schedule: Q01DX001 (ip), vehicle: other): 99 % of control
- T/C (dose: 100.0 mg/kg/injection, schedule: Q01DX001 (ip), vehicle: other): 94 % of control

SMILES: CC[Si](C)(C)c1ccc(CCN2CC2)s1
- T/C [13]: 113 % of control
